≈ marks a conversion by molar mass, not a printed value. Where two headings read alike, the source gives them in different places.
Key:
[1] = test system: C. auris AR Bank # 0381 (strain I); assay: MIC determination (broth microdilution); type: cell-based, Candida auris; conditions: strain I = C. auris AR Bank # 0381; MIC-0; 48 h (CAS read at 24 h)
[2] = test system: murine and human red blood cells (RBCs)
Experimental: The RBCs were resuspended in PBS to achieve a cell concentration of on the order of 10^7 cells/mL. Compounds were dissolved at concentration of 3.14 mg/mL (200×) in DMSO. Serial double dilutions were made in DMSO. A 1:100 dilution of compound in PBS was added to 100 of RBCs in a 96-well plate (total volume of 200 μL). Compounds were tested in the range of 0.06-15.6 μg/mL in quadruplicate with 0.5% DMSO and ˜5×10^6 RBCs per tube. The RBCs were also treated with 1% Triton-X® (positive control) and PBS (negative control). The RBCs were treated for 30 min at 37° C. and the absorbance was read at 595 nm. Hemolysis is visually observed by a decrease in optical density of the wells (turbid, dark red to transparent pink). Percent hemolysis (FIG. 5A-B) was calculated using this equation after subtraction of the background absorbance ([…]): […]

[3] = test system: C. auris AR Bank #0390 (strain L); assay: Time-kill assay; type: cell-based, Candida auris; conditions: 1×MIC
Candida biofilms = conditions: FDA-approved antifungal agents; cited from earlier work
patients = conditions: 6 mg daily dose, oral; cited from earlier work
Candida spp. biofilms = conditions: biofilms of Candida spp.
[4] = test system: Candida strains B, H, K and L; conditions: for mode of killing (time-kill): 1× and 2×MIC, 24 h; for decrease of fungal colony forming units (CFU): by the 3 h time point, no increase over 24 h
[5] = test system: C. albicans ATCC 10231 (strain B); conditions: subcultures exposed to ½ MIC
[6] = test system: C. glabrata ATCC 2001 (strain H); conditions: subcultures exposed to ½ MIC
[7] = test system: C. auris AR Bank #0384 (strain K)
Experimental: (§1) The protocol for time-kill assays followed methods previously described with minor modifications.^34,90 Overnight cultures were grown in YEPD medium at 35° C. with shaking at 200 rpm. The overnight cultures were diluted in RPMI 1640 medium to an OD600 of 0.125 (˜x10^6 CFU/mL). Then, 200 μL of cells were added to 4.8 mL of RPMI 1640 medium in sterile culture tubes to afford a fungal cell concentration ˜1×10^5 CFU/mL. Compounds were then added to the fungal cells. […] Treated fungal cultures were incubated in the culture tubes at 35° C. with 200 rpm shaking for 24 h. Samples were aliquoted from the different treatments at regular time points (0, 3, 6, 9, 12, and 24 h) and plated in duplicate onto PDA plates. For each time point, cultures were vortexed, 100 μL of culture was aspirated, and 10-fold serial dilutions were made in sterile ddH2O. From the appropriate dilutions, 100 μL of fungal suspension was spread on agar plates and incubated at 35° C. for 48 h before colony counts were determined. Only plates containing between 30 and 300 colonies were counted, making […] the limit of detection. At 24 h, 50 μL of sterile 2 mM resazurin in phosphate buffered saline (PBS) was added to the treatments and incubated at 35° C. with 200 rpm shaking for 2 h in the dark for visual inspection.

[8] = test system: C. albicans ATCC 10231 (strain B)
Experimental: as §1

For `C[C@@H]1[C@H](O)[C@@H](C)/C=C/C=C/C=C/C=C/C=C/C=C/C=C/[C@H](O[C@@H]2O[C@H](C)[C@@H](O)[C@H](N)[C@@H]2O)C[C@@H]2O[C@](O)(C[C@@H](O)C[C@@H](O)[C@H](O)CC[C@@H](O)C[C@@H](O)CC(=O)O[C@H]1C)C[C@H](O)[C@H]2C(=O)O` [AmB, amphotericin B, reference compound], the MIC [1] was 1.95 µg/mL (≈ 2.11 µM), the “MIC (in parentheses)” value [1] was 2.1 µM (≈ 1.94 µg/mL) and the hemolysis ([2]; at 7.8 μg/mL) was 30-60%. The hemolysis ([2]; at 15.6 μg/mL) was 100%, the “time at which the limit of detection was reached” value (“time at which the limit” for short) [3] was 9 h and the “SMIC90 (literature)” value (Candida biofilms) was 0.5 to 128 µg/mL.
In the case of `CC(=O)OC[C@H]1O[C@@H]([S-])[C@H](OC(C)=O)[C@@H](OC(C)=O)[C@@H]1OC(C)=O.CCP(CC)CC.[Au+]` [Auranofin, auranofin, reference compound], the “hemolytic activity” value ([2]; at 15.6 μg/mL) is given as “no hemolytic activity” and the tolerability in patients (patients) is given as “well-tolerated”.
With “bis-[1,2-bis[(2R,5R)-2,5-dimethylfphospholano]benzene]gold(1) [Compound 6]” the “activity against biofilms” value (Candida spp. biofilms) was “good activity”, the “mode of killing (time-kill)” value [4] was “fungicidal” and the “decrease of fungal colony forming units (CFU)” value [4] was 102 CFU/mL. The “changes in MIC values over fifteen serial passages” value (from here on “changes in MIC values”) [5] was “no significant changes in MIC values”, the “changes in MIC values” value [6] was “no significant changes in MIC values” and the MIC [1] was 0.98 µg/mL. For the same compound, the “MIC (in parentheses)” value [1] was 1.2 µM, the “time at which the limit” value ([7]; 1×MIC) was 6 h and the “time at which the limit” value ([8]; 2×MIC) was 3 h.
With “bis-[1,2-bis[(2S,5S)-2,5-dimethylphospholano]benzene]gold(I) [Compound 4]” the “activity against biofilms” value (Candida spp. biofilms) was “good activity”, the “mode of killing (time-kill)” value [4] was “fungicidal” and the “decrease of fungal colony forming units (CFU)” value [4] was 102 CFU/mL. The “changes in MIC values” value [5] was “no significant changes in MIC values”, the “changes in MIC values” value [6] was “no significant changes in MIC values” and the MIC [1] was 0.98 µg/mL. For the same compound, the “MIC (in parentheses)” value [1] was 1.2 µM, the “time at which the limit” value ([7]; concentration not specified (tested at 1× and 2×MIC), failed to reach the limit) was over 24 h and the “time at which the limit” value ([8]; 1×MIC, limit of detection 30 CFU/mL) was 9 h.

From patent US11564394B2, “Distorted gold (I)-phosphine complexes and methods for use as antifungal agents” (University of Kentucky Research Foundation, priority 2019, dated 2023)
